# Patent US7531646B2, “β-D-ribosidase activity indicators with a chromogenic substrate” (priority 2001, dated 2009)
# Where a name gives a salt, the structure may show the parent alone.
# Assays:
# Test in all cases: Substrate hydrolysis on Columbia agar
# Format in all cases: cell-based
# [1] = tested on: A. baumanii; conditions: A. baumanii ATCC 19606; 300 mg/l; 18 hours
# [2] = tested on: Shigella dysenteriae; conditions: 300 mg/l, 18 hours
# [3] = tested on: Enterococcus faecalis; conditions: 300 mg/l, 18 hours
# [4] = tested on: A. calcoaceticus; conditions: A. calcoaceticus ATCC 7844; 300 mg/l; 18 hours
# [5] = tested on: Streptococcus constellatus; conditions: Streptococcus constellatus NCTC 11325; 300 mg/l; 18 hours
# [6] = tested on: Vibrio fluvialis; design: key to the marks not given beside the values; conditions: Vibrio fluvialis NCTC 11327; 300 mg/l; 18 hours
# [7] = tested on: Providencia stuartii; conditions: 300 mg/l, 18 hours
# [8] = tested on: Enterococcus casseflavus; conditions: Enterococcus casseflavus NCTC 12361; 300 mg/l; 18 hours
# [9] = tested on: Salmonella typhimurium; conditions: Salmonella typhimurium NCTC 74; 300 mg/l; 18 hours
# [10] = tested on: P. vulgaris; conditions: 300 mg/l, 18 hours
# [11] = tested on: Vibrio alcaligenes; conditions: Vibrio alcaligenes NCTC 12160; 300 mg/l; 18 hours
# [12] = tested on: Vibrio vulnificus; conditions: 300 mg/l, 18 hours
# [13] = tested on: Staphylococcus aureus; conditions: 300 mg/l, 18 hours
# [14] = tested on: Listeria seerigeri; conditions: Listeria seerigeri PHLS wild; 300 mg/l; 18 hours
# [15] = tested on: P. aeruginosa; conditions: 300 mg/l, 18 hours
# [16] = tested on: Listeria ivanovii; conditions: Listeria ivanovii PHLS wild; 300 mg/l; 18 hours
# [17] = tested on: K. oxytoca; conditions: 300 mg/l, 18 hours
# [18] = tested on: Serratia marcescens; conditions: Serratia marcescens NCTC 10211; 300 mg/l; 18 hours
# [19] = tested on: Vibrio furnissii; conditions: Vibrio furnissii NCTC 11218; 300 mg/l; 18 hours
# [20] = tested on: E. coli 0157; conditions: 300 mg/l, 18 hours
# [21] = tested on: Streptococcus milleri; conditions: Streptococcus milleri wild; 300 mg/l; 18 hours
# [22] = tested on: Vibrio harveyi; conditions: Vibrio harveyi NCTC 11346; 300 mg/l; 18 hours
# [23] = tested on: Haemolytic streptococcus A; conditions: 300 mg/l, 18 hours
# [24] = tested on: Staphylococcus saprophyticus; conditions: 300 mg/l, 18 hours
# [25] = tested on: Enterococcus mundtii; conditions: Enterococcus mundtii NCTC 12363; 300 mg/l; 18 hours
# [26] = tested on: P. rettgeri; conditions: P. rettgeri NCTC 7475; 300 mg/l; 18 hours
# [27] = tested on: C. freundii; conditions: 300 mg/l, 18 hours
# [28] = tested on: Vibrio cholerae; conditions: 300 mg/l, 18 hours
# [29] = tested on: Hafnia alvei; conditions: 300 mg/l, 18 hours
# [30] = tested on: P. penneri; conditions: P. penneri PPE 1; 300 mg/l; 18 hours
compound,measurement,setting,value
"O=c1cc(-c2ccc(OC3OC(CO)C(O)C3O)c(O)c2)oc2ccccc12 [DHF-riboside, 3′,4′-dihydroxyflavone-4′-β-D-ribofuranoside Sodium Salt]",Hydrolysis by Gram negative bacteria,[1],−
same,Hydrolysis by Gram negative bacteria,[2]; Shigella dysenteriae (type 2) NCTC 9952,++
same,Hydrolysis by Gram negative bacteria,[2]; Shigella dysenteriae (type 3) NCTC 9720,++
same,Hydrolysis by Gram negative bacteria,[2]; Shigella dysenteriae (type 4) NCTC 9759,++
same,Hydrolysis by Gram positive organisms,[3]; Enterococcus faecalis 1,−
same,Hydrolysis by Gram positive organisms,[3]; Enterococcus faecalis 2,+
same,Hydrolysis by Gram positive organisms,[3]; Enterococcus faecalis 3,+
same,Hydrolysis by Gram positive organisms,[3]; Enterococcus faecalis 4,+
same,Hydrolysis by Gram positive organisms,[3]; Enterococcus faecalis 5,+
same,Hydrolysis by Gram positive organisms,[3]; Enterococcus faecalis 6,+
same,Hydrolysis by Gram positive organisms,[3]; Enterococcus faecalis 7,−
same,Hydrolysis by Gram negative bacteria,[4],−
same,Hydrolysis by Gram positive organisms,[5],−
same,Hydrolysis by Gram negative bacteria,[6],++
same,Hydrolysis by Gram negative bacteria,[7]; Providencia stuartii PST 1,+
same,Hydrolysis by Gram negative bacteria,[7]; Providencia stuartii PST 2,+
same,Hydrolysis by Gram positive organisms,[8],−
same,Hydrolysis by Gram negative bacteria,[9],++
same,Hydrolysis by Gram negative bacteria,[10]; P. vulgaris PVU 2,−
same,Hydrolysis by Gram negative bacteria,[10]; P. vulgaris PVU 4,−
same,Hydrolysis by Gram negative bacteria,[10]; P. vulgaris PVU 5,−
same,Hydrolysis by Gram negative bacteria,[11],−
same,Hydrolysis by Gram negative bacteria,[12]; Vibrio vulnificus NCTC 11066,−
same,Hydrolysis by Gram negative bacteria,[12]; Vibrio vulnificus NCTC 11067,−
same,Hydrolysis by Gram positive organisms,[13]; Staphylococcus aureus 1,++
same,Hydrolysis by Gram positive organisms,[13]; Staphylococcus aureus 2,++
same,Hydrolysis by Gram positive organisms,[13]; Staphylococcus aureus 3,++
same,Hydrolysis by Gram positive organisms,[13]; Staphylococcus aureus 4,++
same,Hydrolysis by Gram positive organisms,[13]; Staphylococcus aureus 5,++
same,Hydrolysis by Gram positive organisms,[14],−
same,Hydrolysis by Gram negative bacteria,[15]; P. aeruginosa ATCC 10145,+
same,Hydrolysis by Gram negative bacteria,[15]; P. aeruginosa NCTC 10662,+
same,Hydrolysis by Gram positive organisms,[16],+
same,Hydrolysis by Gram negative bacteria,[17]; K. oxytoca KOX 1,++
same,Hydrolysis by Gram negative bacteria,[17]; K. oxytoca KOX 2,++
same,Hydrolysis by Gram negative bacteria,[18],++
same,Hydrolysis by Gram negative bacteria,[19],−
same,Hydrolysis by Gram negative bacteria,[20]; E. coli 0157 NCTC 12079,++
same,Hydrolysis by Gram negative bacteria,[20]; E. coli 0157 NCTC 12080,++
same,Hydrolysis by Gram negative bacteria,[20]; E. coli 0157 NCTC 12900,++
same,Hydrolysis by Gram negative bacteria,[20]; E. coli 0157 NCTC 13125,++
same,Hydrolysis by Gram negative bacteria,[20]; E. coli 0157 NCTC 13126,++
same,Hydrolysis by Gram negative bacteria,[20]; E. coli 0157 NCTC 13127,++
same,Hydrolysis by Gram negative bacteria,[20]; E. coli 0157 NCTC 13128,++
same,Hydrolysis by Gram positive organisms,[21],−
same,Hydrolysis by Gram negative bacteria,[22],++
same,Hydrolysis by Gram positive organisms,[23]; Haemolytic streptococcus A 1,−
same,Hydrolysis by Gram positive organisms,[23]; Haemolytic streptococcus A 2,−
same,Hydrolysis by Gram positive organisms,[23]; Haemolytic streptococcus A 3,−
same,Hydrolysis by Gram positive organisms,[24]; Staphylococcus saprophyticus 1,++
same,Hydrolysis by Gram positive organisms,[24]; Staphylococcus saprophyticus 2,++
same,Hydrolysis by Gram positive organisms,[24]; Staphylococcus saprophyticus 3,++
same,Hydrolysis by Gram positive organisms,[24]; Staphylococcus saprophyticus 4,++
same,Hydrolysis by Gram positive organisms,[24]; Staphylococcus saprophyticus 5,++
same,Hydrolysis by Gram positive organisms,[25],+
same,Hydrolysis by Gram negative bacteria,[26],+
same,Hydrolysis by Gram negative bacteria,[27]; C. freundii CFR 1,++
same,Hydrolysis by Gram negative bacteria,[27]; C. freundii CFR 2,++
same,Hydrolysis by Gram negative bacteria,[27]; C. freundii CFR 3,++
same,Hydrolysis by Gram negative bacteria,[27]; C. freundii CFR 4,++
same,Hydrolysis by Gram negative bacteria,[27]; C. freundii NCTC 9750,++
same,Hydrolysis by Gram negative bacteria,[28]; Vibrio cholera NCTC 6585,−
same,Hydrolysis by Gram negative bacteria,[28]; Vibrio cholera NCTC 7270,−
same,Hydrolysis by Gram negative bacteria,[28]; Vibrio cholera NCTC 8021,−
same,Hydrolysis by Gram negative bacteria,[28]; Vibrio cholera NCTC 10732,−
same,Hydrolysis by Gram negative bacteria,[28]; Vibrio cholera NCTC 12945,−
same,Hydrolysis by Gram negative bacteria,[28]; Vibrio cholerae NCTC 7254,−
same,Hydrolysis by Gram negative bacteria,[28]; Vibrio cholerae NCTC 8042,−
same,Hydrolysis by Gram negative bacteria,[28]; Vibrio cholerae NCTC 10255,−
same,Hydrolysis by Gram negative bacteria,[28]; Vibrio cholerae NCTC 10954,−
same,Hydrolysis by Gram negative bacteria,[29]; Hafnia alvei HAL 2,++
same,Hydrolysis by Gram negative bacteria,[29]; Hafnia alvei NCTC 8105,++
same,Hydrolysis by Gram negative bacteria,[30],−
